Test results from US9580416B2, “Inhibitors of Bruton's tyrosine kinase” (PHARMACYCLICS LLC, priority 2014, dated 2017).

Columns and labels:
Type in all cases: biochemical
Lck = Lck (Homo sapiens, UniProt P06239); assay: Lck kinase activity, TR-FRET assay; conditions: read-out: LCK (IC50)
Method in brief: (§1)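 Enzyme (Btk 0.5 nM; Lck 6 nM) reacted 1 h with inhibitor, ATP at Km and biotin-peptide substrate in pH 7.4 buffer, 10% DMSO. Phosphopeptide detected by Eu-p-Tyr100 antibody plus streptavidin-APC (665/615 nm). IC50 calculated from fitted Ki(app) via ATP/Km correction plus half total enzyme.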

EGFR = EGFR (Homo sapiens, UniProt P00533); assay: Inhibition of a panel of kinases, in vitro HotSpot kinase assay: EGFR
Description: (§2) The degree of inhibition of a panel of kinases is determined using the in vitro HotSpot kinase assay (purified enzymes, ^33P-ATP, an appropriate substrate and 1 uM ATP).

Btk = Btk (Homo sapiens, UniProt Q06187); assay: Btk kinase activity, TR-FRET assay; conditions: read-out: Btk (IC50)
Method in brief: as §1

JAK3 = molecular target: T1, JAK3 (Homo sapiens, UniProt P52333); assay: Inhibition of a panel of kinases, in vitro HotSpot kinase assay: JAK3
T1 sequence (P52333 1-1124): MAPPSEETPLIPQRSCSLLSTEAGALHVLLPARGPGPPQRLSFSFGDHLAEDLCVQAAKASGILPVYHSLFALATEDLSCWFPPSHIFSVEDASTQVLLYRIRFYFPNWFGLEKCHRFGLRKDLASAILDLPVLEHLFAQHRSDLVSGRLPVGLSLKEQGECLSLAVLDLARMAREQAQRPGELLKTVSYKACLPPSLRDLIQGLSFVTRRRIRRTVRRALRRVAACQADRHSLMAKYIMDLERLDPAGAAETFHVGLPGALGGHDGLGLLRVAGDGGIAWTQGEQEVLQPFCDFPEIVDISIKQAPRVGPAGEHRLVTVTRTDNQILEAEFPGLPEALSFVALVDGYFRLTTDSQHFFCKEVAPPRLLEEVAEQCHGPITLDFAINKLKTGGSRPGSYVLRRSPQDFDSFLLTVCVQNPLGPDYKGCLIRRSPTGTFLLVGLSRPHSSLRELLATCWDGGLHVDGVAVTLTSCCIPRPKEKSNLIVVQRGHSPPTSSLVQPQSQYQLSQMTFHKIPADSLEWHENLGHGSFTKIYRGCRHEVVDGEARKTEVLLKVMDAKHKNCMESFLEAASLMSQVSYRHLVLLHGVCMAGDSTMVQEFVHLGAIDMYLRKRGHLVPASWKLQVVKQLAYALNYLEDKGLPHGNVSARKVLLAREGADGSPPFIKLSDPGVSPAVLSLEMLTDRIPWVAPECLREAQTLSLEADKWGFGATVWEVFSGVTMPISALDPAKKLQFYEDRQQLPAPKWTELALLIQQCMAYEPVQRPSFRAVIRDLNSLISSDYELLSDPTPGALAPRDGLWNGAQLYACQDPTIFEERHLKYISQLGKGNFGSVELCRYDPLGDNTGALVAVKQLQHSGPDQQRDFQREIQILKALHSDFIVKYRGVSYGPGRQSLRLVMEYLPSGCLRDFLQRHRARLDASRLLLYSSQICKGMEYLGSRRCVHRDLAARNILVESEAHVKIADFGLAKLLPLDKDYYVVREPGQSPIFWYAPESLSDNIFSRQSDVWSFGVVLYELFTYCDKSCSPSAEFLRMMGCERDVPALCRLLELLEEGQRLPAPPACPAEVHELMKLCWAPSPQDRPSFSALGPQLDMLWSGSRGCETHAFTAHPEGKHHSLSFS
Description: as §2

Lck, sequence (P06239 whole entry, species assumed): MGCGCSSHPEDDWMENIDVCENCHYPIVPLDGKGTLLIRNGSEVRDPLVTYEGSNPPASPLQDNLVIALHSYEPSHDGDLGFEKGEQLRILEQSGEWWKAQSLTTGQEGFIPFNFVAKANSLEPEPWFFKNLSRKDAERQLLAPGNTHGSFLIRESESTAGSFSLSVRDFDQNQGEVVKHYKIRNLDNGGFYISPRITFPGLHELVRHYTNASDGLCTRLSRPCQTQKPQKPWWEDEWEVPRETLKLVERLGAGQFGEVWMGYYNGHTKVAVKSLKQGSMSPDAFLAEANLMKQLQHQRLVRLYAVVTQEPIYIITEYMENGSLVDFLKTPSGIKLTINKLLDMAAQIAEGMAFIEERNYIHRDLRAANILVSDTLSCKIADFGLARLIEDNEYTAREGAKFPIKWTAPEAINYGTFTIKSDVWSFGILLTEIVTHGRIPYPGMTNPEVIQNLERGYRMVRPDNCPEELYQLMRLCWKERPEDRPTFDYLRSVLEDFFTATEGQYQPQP
Btk, sequence (Q06187 whole entry): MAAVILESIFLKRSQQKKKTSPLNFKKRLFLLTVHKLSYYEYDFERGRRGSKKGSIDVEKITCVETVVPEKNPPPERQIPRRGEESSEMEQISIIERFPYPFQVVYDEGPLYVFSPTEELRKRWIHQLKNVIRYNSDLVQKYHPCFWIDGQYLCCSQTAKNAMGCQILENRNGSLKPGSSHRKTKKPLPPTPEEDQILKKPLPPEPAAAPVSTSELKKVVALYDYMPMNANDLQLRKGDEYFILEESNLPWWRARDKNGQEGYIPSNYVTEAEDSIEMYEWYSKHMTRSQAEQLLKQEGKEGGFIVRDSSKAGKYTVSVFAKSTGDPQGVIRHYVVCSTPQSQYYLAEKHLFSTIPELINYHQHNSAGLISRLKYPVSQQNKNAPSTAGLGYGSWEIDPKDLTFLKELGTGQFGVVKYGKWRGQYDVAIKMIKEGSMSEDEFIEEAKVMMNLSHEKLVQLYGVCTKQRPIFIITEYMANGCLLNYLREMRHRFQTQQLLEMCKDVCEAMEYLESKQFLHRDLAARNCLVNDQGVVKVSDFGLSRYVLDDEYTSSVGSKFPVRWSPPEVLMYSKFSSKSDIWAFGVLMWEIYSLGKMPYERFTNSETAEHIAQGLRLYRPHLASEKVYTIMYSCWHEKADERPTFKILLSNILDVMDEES
EGFR, sequence (P00533 25-1210): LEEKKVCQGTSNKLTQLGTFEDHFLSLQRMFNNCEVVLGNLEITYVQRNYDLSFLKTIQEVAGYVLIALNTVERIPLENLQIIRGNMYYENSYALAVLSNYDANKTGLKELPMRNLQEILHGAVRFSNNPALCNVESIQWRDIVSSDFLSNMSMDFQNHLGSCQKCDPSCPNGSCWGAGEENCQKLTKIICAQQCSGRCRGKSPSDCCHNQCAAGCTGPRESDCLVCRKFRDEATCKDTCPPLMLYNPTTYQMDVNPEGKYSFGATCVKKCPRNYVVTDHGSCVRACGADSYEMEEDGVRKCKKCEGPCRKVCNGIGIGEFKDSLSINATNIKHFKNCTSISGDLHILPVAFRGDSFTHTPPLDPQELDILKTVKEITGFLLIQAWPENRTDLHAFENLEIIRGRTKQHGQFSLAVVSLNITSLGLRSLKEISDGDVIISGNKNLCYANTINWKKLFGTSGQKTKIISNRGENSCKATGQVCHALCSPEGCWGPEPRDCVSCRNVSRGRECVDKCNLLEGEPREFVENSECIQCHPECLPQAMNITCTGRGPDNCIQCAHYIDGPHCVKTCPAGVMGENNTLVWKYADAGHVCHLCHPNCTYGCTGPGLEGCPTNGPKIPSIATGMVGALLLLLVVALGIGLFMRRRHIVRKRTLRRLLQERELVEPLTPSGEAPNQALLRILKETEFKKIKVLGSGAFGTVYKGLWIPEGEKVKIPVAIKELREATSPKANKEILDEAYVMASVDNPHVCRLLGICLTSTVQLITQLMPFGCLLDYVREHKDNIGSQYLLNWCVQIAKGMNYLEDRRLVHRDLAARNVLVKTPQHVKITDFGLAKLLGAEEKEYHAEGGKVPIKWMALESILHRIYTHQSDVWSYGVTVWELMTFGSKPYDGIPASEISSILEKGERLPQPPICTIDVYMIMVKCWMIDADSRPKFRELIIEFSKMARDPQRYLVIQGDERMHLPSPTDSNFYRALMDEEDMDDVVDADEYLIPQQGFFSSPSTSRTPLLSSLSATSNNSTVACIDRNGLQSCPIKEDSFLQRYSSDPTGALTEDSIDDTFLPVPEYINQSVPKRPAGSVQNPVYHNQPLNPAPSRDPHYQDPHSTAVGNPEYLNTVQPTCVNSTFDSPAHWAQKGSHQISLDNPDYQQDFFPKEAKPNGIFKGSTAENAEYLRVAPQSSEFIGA

IC50 (Lck)	IC50 (EGFR)	IC50 (Btk)	IC50 (JAK3)	Structure (SMILES)
100 to 1000 nM	> 10000 nM	< 100 nM	> 10000 nM	COCCCC(=O)N1CCC[C@@H](Nc2n[nH]c3nccc(Oc4ccc(C(=O)Nc5cc(C)ccn5)cc4)c23)C1 [compound 274, (R)-4-(3-(1-(4-methoxybutanoyl)piperidin-3-ylamino)-1H-pyrazolo[3,4-b]pyridin-4-yloxy)-N-(4-methylpyridin-2-yl)benzamide]
100 to 1000 nM	> 10000 nM	< 100 nM	> 10000 nM	Cc1ccnc(NC(=O)c2ccc(Oc3ccnc4[nH]nc(N[C@@H]5CCCN(C(=O)C6(C#N)CC6)C5)c34)cc2)c1 [compound 101, 4-[(3-{[(3R)-1-(1-cyanocyclopropanecarbonyl)piperidin-3-yl]amino}-1H-pyrazolo[3,4-b]pyridin-4-yl)oxy]-N-(4-methylpyridin-2-yl)benzamide]
< 100 nM	< 100 nM	< 100 nM	100 to 1000 nM	C=CC(=O)N1CC[C@@H](Nc2n[nH]c3nccc(Oc4ccc(Oc5ccccc5)cc4)c23)C1 [compound 4, 1-[(3R)-3-{[4-(4-phenoxyphenoxy)-1H-pyrazolo[3,4-b]pyridin-3-yl]amino}pyrrolidin-1-yl]prop-2-en-1-one]
> 10000 nM	1000 to 10000 nM	100 to 1000 nM	1000 to 10000 nM	Cc1csc(NC(=O)c2ccc(Oc3ccnc4[nH]nc(N[C@@H]5CCCN(C(=O)/C=C/CN(C)C6CC6)C5)c34)cc2)n1 [compound 139]
1000 to 10000 nM	> 10000 nM	< 100 nM	> 10000 nM	Cc1ccnc(NC(=O)c2ccc(Oc3ccnc4[nH]nc(N[C@@H]5CCN(C(=O)C6(C#N)CC6)C5)c34)cc2)c1 [compound 279, (R)-4-(3-(1-(1-cyanocyclopropanecarbonyl)pyrrolidin-3-ylamino)-1H-pyrazolo[3,4-b]pyridin-4-yloxy)-N-(4-methylpyridin-2-yl)benzamide]
100 to 1000 nM	> 10000 nM	< 100 nM	100 to 1000 nM	CC#CC(=O)N1CCC[C@@H](Nc2n[nH]c3nccc(Oc4ccc(C(=O)Nc5nc6ccccc6s5)cc4)c23)C1 [compound 183]
> 10000 nM	100 to 1000 nM	100 to 1000 nM	< 100 nM	C=CC(=O)N1CCC[C@@H](Nc2n[nH]c3nccc(Oc4ccc(C(=O)Nc5nnc(C)s5)cc4)c23)C1 [compound 187]
< 100 nM	< 100 nM	< 100 nM	> 10000 nM	CN(C)C/C=C/C(=O)N1CC[C@@H](Nc2n[nH]c3nccc(Oc4ccc(Oc5ccccc5)cc4)c23)C1 [compound 5, (2E)-4-(dimethylamino)-1-[(3R)-3-{[4-(4-phenoxyphenoxy)-1H-pyrazolo[3,4-b]pyridin-3-yl]amino}pyrrolidin-1-yl]but-2-en-1-one]
> 10000 nM	> 10000 nM	100 to 1000 nM	> 10000 nM	CC#CC(=O)N1CCC[C@@H](Nc2n[nH]c3nccc(Oc4ccc(C(=O)Nc5cc(C)n(C)n5)cc4)c23)C1 [compound 185]
100 to 1000 nM	1000 to 10000 nM	< 100 nM	> 10000 nM	Cc1ccnc(NC(=O)c2ccc(Oc3ccnc4[nH]nc(N[C@@H]5CCCN(S(C)(=O)=O)C5)c34)cc2)c1 [compound 269, (R)-N-(4-methylpyridin-2-yl)-4-(3-(1-(methylsulfonyl)piperidin-3-ylamino)-1H-pyrazolo[3,4-b]pyridin-4-yloxy)benzamide]
1000 to 10000 nM	1000 to 10000 nM	< 100 nM	> 10000 nM	Cc1cnc(NC(=O)c2ccc(Oc3ccnc4[nH]nc(N[C@@H]5CCN(C(=O)C6CC6)C5)c34)cc2)s1 [compound 200, 4-[(3-{[(3R)-1-cyclopropanecarbonylpyrrolidin-3-yl]amino}-1H-pyrazolo[3,4-b]pyridin-4-yl)oxy]-N-(5-methyl-1,3-thiazol-2-yl)benzamide]
< 100 nM	< 100 nM	< 100 nM	100 to 1000 nM	C=CC(=O)N1CCC[C@@H](Nc2n[nH]c3nccc(Oc4ccc(Oc5ccccc5)cc4)c23)C1 [compound 6, 1-[(3R)-3-{[4-(4-phenoxyphenoxy)-1H-pyrazolo[3,4-b]pyridin-3-yl]amino}piperidin-1-yl]prop-2-en-1-one]
< 100 nM	< 100 nM	< 100 nM	> 10000 nM	COCCN(C)C/C=C/C(=O)N1CC[C@@H](Nc2n[nH]c3nccc(Oc4ccc(Oc5ccccc5)cc4)c23)C1 [compound 9, (2E)-4-[(2-methoxyethyl)(methyl)amino]-1-[(3R)-3-{[4-(4-phenoxyphenoxy)-1H-pyrazolo[3,4-b]pyridin-3-yl]amino}pyrrolidin-1-yl]but-2-en-1-one]
< 100 nM	100 to 1000 nM	< 100 nM	> 10000 nM	CN(C/C=C/C(=O)N1CCC[C@@H](Nc2n[nH]c3nccc(Oc4ccc(Oc5ccccc5)cc4)c23)C1)C1CC1 [compound 8, (2E)-4-[cyclopropyl(methyl)amino]-1-[(3R)-3-{[4-(4-phenoxyphenoxy)-1H-pyrazolo[3,4-b]pyridin-3-yl]amino}piperidin-1-yl]but-2-en-1-one]
100 to 1000 nM	1000 to 10000 nM	< 100 nM	> 10000 nM	Cc1ccnc(NC(=O)c2ccc(Oc3ccnc4[nH]nc(N[C@@H]5CCCN(C(=O)C6CC6)C5)c34)cc2)c1 [compound 100, 4-[(3-{[(3R)-1-cyclopropanecarbonylpiperidin-3-yl]amino}-1H-pyrazolo[3,4-b]pyridin-4-yl)oxy]-N-(4-methylpyridin-2-yl)benzamide]
100 to 1000 nM	> 10000 nM	< 100 nM	> 10000 nM	CC#CC(=O)N1CCC[C@@H](Nc2n[nH]c3nccc(Oc4ccc(C(=O)Nc5nc(C)c(C)s5)cc4)c23)C1 [compound 175]
> 10000 nM	> 10000 nM	> 10000 nM	> 10000 nM	CCC(=O)N1CCC[C@@H](Nc2n[nH]c3nccc(Oc4ccc(-c5nc6ccccc6[nH]5)cc4)c23)C1 [compound 231, 1-[(3R)-3-({4-[4-(1H-1,3-benzodiazol-2-yl)phenoxy]-1H-pyrazolo[3,4-b]pyridin-3-yl}amino)piperidin-1-yl]propan-1-one]
1000 to 10000 nM	> 10000 nM	< 100 nM	> 10000 nM	CCNC(=O)N1CCC[C@@H](Nc2n[nH]c3nccc(Oc4ccc(C(=O)Nc5cc(C)ccn5)cc4)c23)C1 [compound 227, (R)-N-ethyl-3-(4-(4-(4-methylpyridin-2-ylcarbamoyl)phenoxy)-1H-pyrazolo[3,4-b]pyridin-3-ylamino)piperidine-1-carboxamide]
1000 to 10000 nM	< 100 nM	< 100 nM	< 100 nM	C=CC(=O)N1CCC[C@@H](Nc2n[nH]c3nccc(Oc4cccc(C(=O)Nc5ncc(C)s5)c4)c23)C1 [compound 149]
100 to 1000 nM	< 100 nM	< 100 nM	< 100 nM	Cc1cc(NC(=O)c2cccc(Oc3ccnc4[nH]nc(N[C@@H]5CCCN(C(=O)C#CCO)C5)c34)c2)ccc1C(C)C [compound 251, (R)-3-(3-(1-(4-hydroxybut-2-ynoyl)piperidin-3-ylamino)-1H-pyrazolo[3,4-b]pyridin-4-yloxy)-N-(4-isopropyl-3-methylphenyl)benzamide]
< 100 nM	> 10000 nM	100 to 1000 nM	1000 to 10000 nM	Cc1cc(NC(=O)c2cccc(Oc3ccnc4[nH]nc(N[C@H]5CCN(C(=O)C6CC6)C5)c34)c2)ccc1C(C)C [compound 125, 3-[(3-{[(3S)-1-cyclopropanecarbonylpyrrolidin-3-yl]amino}-1H-pyrazolo[3,4-b]pyridin-4-yl)oxy]-N-[3-methyl-4-(propan-2-yl)phenyl]benzamide]
